Measured values published in US10172946B2, “Monodisperse glycogen and phytoglycogen nanoparticles and use thereof as additives in cosmetics, pharmaceuticals, and food products” (Mirexus Biotechnologies Inc., priority 2013, dated 2019).

Experiment: Photostability of phytoglycogen-ethyl-4-aminocinnamate conjugate versus aminocinnamate
Type: physicochemical
Conditions: after 4 h of exposure to UV-irradiation, thin film
Method: Aminocinnamate and a phytoglycogen-ethyl-4-aminocinnamate conjugate were dissolved in ethanol or in water, respectively.
Solutions were deposited as thin films onto a quartz plate and dried in air for 30 min. After drying, the samples were irradiated with UV light, as in Example 11, for 4 h and then tested for their photostability.
Photodegradation was calculated from the decrease in the maximum absorption of the respective products.

maximum absorbance retained: 40%
SMILES: CCOC(=O)C=Cc1ccc(N)cc1 [aminocinnamate, ethyl 4-aminocinnamate]
